Source: patent US20220017623A1, “TREATMENT OF CANCER USING A CEA CD3 BISPECIFIC ANTIBODY AND A WNT SIGNALING INHIBITOR” (Hoffmann-La Roche Inc., priority 2019, published 2022)

Key:
[1] = tested on: cell surface CEA expression of colorectal cancer organoid lines; assay: Wnt/β-catenin pathway inhibition assay: cell surface CEA expression of PDOs by flow cytometry; assay type: cell-based, human; conditions: PDOs with mixed CEA expression; 10 μM for 3 days; FACS
Procedure: Two PDO lines with mixed CEA expression were treated with an inhibitor of WNT signalling: the tankyrase inhibitor compound 21 which inhibits the downstream WNT/β-catenin pathway by stabilizing the β-catenin destruction complex (Elliott et al., Med Chem Comm. 2015; 6(9):1687-92; Mariotti et al., Br J Pharmacol. 2017; 174(24):4611-36).
Cell lines were harvested using enzyme-free Cell Dissociation Buffer (Thermo Fisher) and PDOs with TrypLE Express (Gibco). 2×10^5 cells were stained with 20 nM of the human anti-human CEA antibody CH1A1A (Roche) and 25 ug/ml of the R-Phycoerythrin conjugated secondary antibody AffiniPure F(ab′)2 Fragment Goat Anti-Human IgG, Fcγ Fragment Specific (Stratech). DRAQ7 (Biostatus) staining was included for dead cell exclusion. CEA expression was analysed on a Sony SH800 flow cytometer. Gate boundaries were set at the trough between high and low CEA populations in PDOs with mixed CEA expression and identical gates were used across all samples. The percentage of CEAhi and CEAlo populations and mean fluorescence intensities (MFI) were calculated for each PDO.
10^5 PDO cells/well were seeded in 12 well plates and allowed to attach overnight. […] Cells were harvested using TrypLE Express, stained for CEA with the CH1A1A primary antibody and the R-Phycoerythrin conjugated secondary antibody and analyzed by FACS as described above.

[2] = tested on: patient derived colorectal cancer organoids (PDOs); assay: allogeneic CD8 T cell co-culture assay with patient derived colorectal cancer organoids, GFP confluence growth assessment; assay type: cell-based, human; conditions: CEAhi PDO CRC-01; E:T 2:1; 20 nM
Procedure: In order to assess the sensitivity of patient-derived colorectal cancer organoids (PDOs) to cibisatamab immunotherapy, eight patient derived colorectal cancer organoid lines with various cell surface CEA expression levels were generated and treated with cibisatamab (20 nM) or an untargeted control antibody (20 nM) during 10 days of co-culture with allogeneic CD8 T cells. CD8 T cells were isolated from allogeneic healthy donor peripheral blood mononuclear cells (PBMCs) by magnetic bead sorting and expanded in vitro with IL2 and CD3/CD28 beads for 7-14 days. GFP-tagged CRC PDO cells were then seeded in 96 well plates, T cells were added the following day and the co-cultures were imaged every 2-3 days on an automated 96 well plate fluorescence microscope. […] Co-culture with CD8 T cells without any antibody was included as a further control to enable the identification of alloreactive donor T cells. […]
PDOs were harvested with TrypLE Express and neutralised with DMEM/F12 Ham medium (Sigma Aldrich) with 10% FBS. Cells were filtered through a 70 μm filter, counted and resuspended in phenol-red free RPMI medium (Thermo Fisher) supplemented with 10% FBS (Biosera), 1× Glutamax and 100 units penicillin-streptomycin. […]
The GFP confluence was quantified every 48h-72h over a 10-day period using the GFP confluence application on the Celigo Imaging Cytometer (Nexcelom Bioscience). […]

| Compound | effect on CEA expression and CEAhi subpopulation [1] | growth suppression activity of T cells in the presence of antibody [2] |
| --- | --- | --- |
| Cc1cc(-c2ncc(CC(=O)Nc3ccc(-c4cnccn4)cn3)cc2C)ccn1 [LGK-974] | increase in CEA expression and the CEAhi subpopulation |  |
| DP47-TCB: untargeted antibody used as a negative control [reference compound] |  | no activity |
